Measurements reported in ChEMBL document CHEMBL1150275, “Pharmacological and pharmacokinetic characterization of 2-piperazine-alpha-isopropyl benzylamine derivatives as melanocortin-4 receptor antagonists” (Bioorg Med Chem, 2008).

How the values were obtained:
[1] = Tmax in mouse at 5 mg/kg, iv and 10 mg/kg, po; assay type: ADME, organism-based; conditions: in vivo
[2] = AUC in mouse at 10 mg/kg, po; assay type: ADME, organism-based; parameters: dose 10 mg/kg, route oral; conditions: plasma
[3] = Oral bioavailability in mouse at 10 mg/kg; assay type: ADME, organism-based; conditions: in vivo
[4] = Ratio of drug level in brain to plasma in mouse at 5 mg/kg, iv after 4 hrs; assay type: ADME, organism-based; parameters: dose 5 mg/kg, route intravenous
[5] = Volume of distribution in mouse at 5 mg/kg, iv and 10 mg/kg, po; assay type: ADME, organism-based; conditions: in vivo
Caco-2 = assay: Apparent permeability across human Caco-2 cells; assay type: ADME, cell-based
[6] = Cmax in mouse at 5 mg/kg, iv and 10 mg/kg, po; assay type: ADME, organism-based; conditions: in vivo
[7] = Drug level in mouse brain at 5 mg/kg, iv after 4 hrs; assay type: ADME, organism-based; parameters: dose 5 mg/kg, route intravenous; conditions: read-out: Drug uptake
[8] = Drug level in mouse brain at 5 mg/kg, iv after 1 hr; assay type: ADME, organism-based; parameters: dose 5 mg/kg, route intravenous; conditions: read-out: Drug uptake
[9] = Ratio of drug level in brain to plasma in mouse at 5 mg/kg, iv after 1 hr; assay type: ADME, organism-based; parameters: dose 5 mg/kg, route intravenous
physchem = conditions: buffer, pH 7.4

Row | SMILES | Tmax [1] | AUC [2] | bioavailability [3] | Kp at 4 h [4] | Vd [5] | Papp (Caco-2) | Cmax [6] | concentration at 4 h [7] | concentration at 1 h [8] | Kp at 1 h [9] | logD (physchem)
1 | CNCC(=O)N[C@H](c1cccc(F)c1N1CCN(C(=O)[C@H](C)Cc2ccc(Cl)cc2Cl)CC1)C(C)C | 120 min | 1010 ng·h/mL | 23% | 0.5 | 13 L/kg | 2 ×10⁻⁶ cm/s | 172 ng/mL | 71 ng/g | 85 ng/g | 0.3 | 4.3
2 | COc1cc(Cl)ccc1C[C@@H](C)C(=O)N1CCN(c2ccc(Cl)cc2[C@@H](NC(=O)[C@@H](C)N)C(C)C)CC1 | 15 min | 397 ng·h/mL | 16% | 1 | 16 L/kg | 3 ×10⁻⁶ cm/s | 143 ng/mL | 59 ng/g | 95 ng/g | 0.4 | 4.5
3 | CNCC(=O)N[C@H](c1cc(Cl)ccc1N1CCN(C(=O)[C@H](C)Cc2ccc(Cl)cc2)CC1)C(C)C | 30 min | 232 ng·h/mL | 13% | 1.5 | 16 L/kg |  | 88 ng/mL | 62 ng/g |  | 0.7 | 4.3
4 | COc1cc(Cl)ccc1C[C@@H](C)C(=O)N1CCN(c2c(F)cccc2[C@@H](NC(=O)C2CNC2)C(C)C)CC1 | 120 min | 336 ng·h/mL | 5.6% | 0.4 | 10 L/kg | 0.2 ×10⁻⁶ cm/s | 104 ng/mL | 32 ng/g | 51 ng/g | 0.1 | 2.6
5 | Cc1ccc(N2CCN(C(=O)[C@H](C)Cc3ccc(Cl)cc3)CC2)c([C@@H](NC(=O)CCN)C(C)C)c1 |  |  |  |  |  | 3 ×10⁻⁶ cm/s |  |  |  |  | 2.4
6 | CNCCC(=O)N[C@H](c1cc(C)ccc1N1CCN(C(=O)[C@H](C)Cc2ccc(Cl)cc2)CC1)C(C)C |  |  |  |  |  | 12 ×10⁻⁶ cm/s |  |  |  |  | 2.7
7 | CNCC(=O)N[C@H](c1cc(C)ccc1N1CCN(C(=O)[C@H](C)Cc2ccc(Cl)cc2F)CC1)C(C)C | 120 min | 2290 ng·h/mL | 30% | 0.2 | 3 L/kg | 8 ×10⁻⁶ cm/s | 632 ng/mL | 42 ng/g | 59 ng/g | 0.1 | 4
8 | COc1cc(Cl)ccc1C[C@@H](C)C(=O)N1CCN(c2ccc(Cl)cc2[C@@H](NC(=O)C2CNC2)C(C)C)CC1 | 120 min | 422 ng·h/mL | 5.8% | 0.4 | 8.2 L/kg | 0.3 ×10⁻⁶ cm/s | 151 ng/mL | 39 ng/g | 61 ng/g | 0.1 | 2.3
9 | CC(C)[C@H](NC(=O)C1CN(C)C1)c1cc(Cl)ccc1N1CCN(C(=O)[C@H](C)Cc2ccc(Cl)cc2)CC1 | 360 min | 9160 ng·h/mL | 58% | 0.1 | 3 L/kg | 2 ×10⁻⁶ cm/s | 762 ng/mL | 77 ng/g | 79 ng/g | 0.1 | 3
10 | CNCCN[C@H](c1cc(C)ccc1N1CCN(C(=O)[C@H](C)Cc2ccc(Cl)cc2F)CC1)C(C)C |  |  |  |  |  | 3 ×10⁻⁶ cm/s |  |  |  |  | 2.5
11 | CNCC(=O)N[C@H](c1cccc(F)c1N1CCN(C(=O)[C@H](C)Cc2ccc(Cl)cc2)CC1)C(C)C | 30 min | 813 ng·h/mL | 21% | 1.1 | 19 L/kg | 1 ×10⁻⁶ cm/s | 165 ng/mL | 126 ng/g | 231 ng/g | 0.6 | 2.4
12 | CC(C)[C@H](NC(=O)CCN(C)C)c1cc(Cl)ccc1N1CCN(C(=O)[C@H](C)Cc2ccc(Cl)cc2)CC1 | 60 min | 600 ng·h/mL | 19% | 2.3 | 11 L/kg | 9 ×10⁻⁶ cm/s | 109 ng/mL | 176 ng/g | 580 ng/g | 1.9 | 4
13 | CNCC(=O)N[C@H](c1cccc(F)c1N1CCN(C(=O)[C@H](C)Cc2ccc(Cl)cc2OC)CC1)C(C)C | 30 min | 374 ng·h/mL | 12% | 1.7 | 29 L/kg | 2 ×10⁻⁶ cm/s | 114 ng/mL | 107 ng/g |  | 0.5 | 3.1
14 | CNCC(=O)N[C@H](c1cc(Cl)ccc1N1CCN(C(=O)[C@H](C)Cc2ccc(Cl)cc2OC)CC1)C(C)C | 30 min | 208 ng·h/mL | 8% | 1.3 | 11 L/kg |  | 55 ng/mL | 102 ng/g | 334 ng/g | 1.3 | 3.5
15 | CNCCN[C@H](c1cccc(F)c1N1CCN(C(=O)[C@H](C)Cc2ccc(Cl)cc2)CC1)C(C)C | 30 min | 1630 ng·h/mL | 47% | 1.2 | 52 L/kg | 0.4 ×10⁻⁶ cm/s | 166 ng/mL | 62 ng/g | 53 ng/g | 0.4 | 2.6
16 | Cc1ccc(N2CCN(C(=O)[C@H](C)Cc3ccc(Cl)cc3C)CC2)c([C@@H](NC(=O)CCN(C)C)C(C)C)c1 |  |  |  |  |  | 16 ×10⁻⁶ cm/s |  |  |  |  | 4
